Laboratory results as given in the NIST ThermoML archive (doi:10.1007/s10765-008-0444-7).
Numbers after ± are expanded uncertainties.

Experiments:
[1] = 101.3 kPa, Liquid; for viscosity: Capillary tube (Ostwald / Ubbelohde) method; for mass density: Pycnometric method
[2] = xn = mol fraction of the nth substance listed; conditions: 101 kPa, Liquid; for viscosity: Capillary tube (Ostwald / Ubbelohde) method; for mass density: Pycnometric method

CO [methanol]
[1]
Conditions	mass density [kg/m3]	viscosity [mPa·s]
293 K	791.1 ± 3.5	0.591 ± 0.016
303 K	781.9 ± 3.5	0.518 ± 0.014
313 K	772.4 ± 3.4	0.45 ± 0.013

Clc1ccccc1 [chlorobenzene]
[1]
Conditions	mass density [kg/m3]	viscosity [mPa·s]
293 K	1105.8 ± 6.8	0.8432 ± 0.023
303 K	1095 ± 6.7	0.721 ± 0.02
313 K	1082 ± 6.6	0.6247 ± 0.017

Brc1ccccc1 [bromobenzene]
[1]
Conditions	mass density [kg/m3]	viscosity [mPa·s]
293 K	1497 ± 12	1.164 ± 0.032
303 K	1483 ± 12	0.9844 ± 0.027
313 K	1467 ± 12	0.8786 ± 0.024

CO [methanol] + Brc1ccccc1
[2], x1 = 1
Conditions	mass density [kg/m3]	viscosity [mPa·s]
293 K	791.1 ± 3.5	0.591 ± 0.016
303 K	781.9 ± 3.5	0.518 ± 0.014
313 K	772.4 ± 3.4	0.45 ± 0.013

CO [methanol] + Clc1ccccc1
[2], x1 = 1
Conditions	mass density [kg/m3]	viscosity [mPa·s]
293 K	791.1 ± 3.5	0.591 ± 0.016
303 K	781.9 ± 3.5	0.518 ± 0.014
313 K	772.4 ± 3.4	0.45 ± 0.013

Brc1ccccc1 [bromobenzene] + CO
[2]
Conditions	mass density, 293 K [kg/m3]	mass density, 303 K [kg/m3]	mass density, 313 K [kg/m3]	viscosity, 293 K [mPa·s]	viscosity, 303 K [mPa·s]	viscosity, 313 K [mPa·s]
x2 = 0	1497 ± 12	1483 ± 12	1467 ± 12	1.164 ± 0.032	0.9844 ± 0.027	0.8786 ± 0.024
x2 = 0.3528	1381 ± 11	1367 ± 10	1352 ± 10	1.124 ± 0.031	0.9306 ± 0.026	0.8142 ± 0.022
x2 = 0.5504	1280 ± 9.1	1267 ± 9	1253 ± 8.8	1.008 ± 0.028	0.8356 ± 0.023	0.7399 ± 0.02
x2 = 0.6775	1192 ± 7.9	1179 ± 7.8	1166 ± 7.6	0.8873 ± 0.024	0.742 ± 0.021	0.6444 ± 0.018
x2 = 0.7657	1114 ± 6.9	1102 ± 6.8	1089 ± 6.7	0.8144 ± 0.022	0.6962 ± 0.019	0.6019 ± 0.017
x2 = 0.8305	1045 ± 6.1	1033 ± 6	1021 ± 5.9	0.7619 ± 0.021	0.6467 ± 0.018	0.5686 ± 0.016
x2 = 0.8802	983 ± 5.4	972.1 ± 5.3	960.7 ± 5.2	0.7235 ± 0.02	0.617 ± 0.017	0.5451 ± 0.015
x2 = 0.9195	927.6 ± 4.8	917.2 ± 4.8	906.4 ± 4.7	0.686 ± 0.019	0.5891 ± 0.016	0.513 ± 0.014
x2 = 0.9552	871.4 ± 4.3	861.5 ± 4.2	851.1 ± 4.1	0.657 ± 0.018	0.5651 ± 0.016	0.49 ± 0.014
x2 = 0.9778	832.3 ± 3.9	822.8 ± 3.8	812.9 ± 3.8	0.6312 ± 0.017	0.5344 ± 0.015	0.4773 ± 0.013

Clc1ccccc1 [chlorobenzene] + CO
[2]
Conditions	mass density, 293 K [kg/m3]	mass density, 303 K [kg/m3]	mass density, 313 K [kg/m3]	viscosity, 293 K [mPa·s]	viscosity, 303 K [mPa·s]	viscosity, 313 K [mPa·s]
x2 = 0	1105.8 ± 6.8	1095 ± 6.7	1082 ± 6.6	0.8432 ± 0.023	0.721 ± 0.02	0.6247 ± 0.017
x2 = 0.2808	1066.5 ± 6.4	1056 ± 6.3	1044 ± 6.1	0.8312 ± 0.023	0.7121 ± 0.02	0.6157 ± 0.017
x2 = 0.4676	1029.2 ± 5.9	1019 ± 5.8	1007 ± 5.7	0.8209 ± 0.023	0.6924 ± 0.019	0.6041 ± 0.017
x2 = 0.601	993.9 ± 5.5	983.7 ± 5.4	972.5 ± 5.3	0.8018 ± 0.022	0.6821 ± 0.019	0.5832 ± 0.016
x2 = 0.7009	960.5 ± 5.2	950.4 ± 5.1	939.4 ± 5	0.7699 ± 0.021	0.6572 ± 0.018	0.5569 ± 0.015
x2 = 0.7783	928.8 ± 4.8	918.9 ± 4.8	908.1 ± 4.7	0.7256 ± 0.02	0.6093 ± 0.017	0.5296 ± 0.015
x2 = 0.8405	898.5 ± 4.5	888.8 ± 4.5	878.3 ± 4.4	0.692 ± 0.019	0.5828 ± 0.016	0.51 ± 0.014
x2 = 0.8913	869.7 ± 4.3	860.1 ± 4.2	849.9 ± 4.1	0.6766 ± 0.019	0.5672 ± 0.016	0.4961 ± 0.014
x2 = 0.9335	842.3 ± 4	832.9 ± 3.9	822.9 ± 3.9	0.6424 ± 0.018	0.5401 ± 0.015	0.4701 ± 0.013
x2 = 0.9693	816.2 ± 3.8	806.8 ± 3.7	797.1 ± 3.6	0.6194 ± 0.017	0.528 ± 0.015	0.4591 ± 0.013
